{"source": "patent US20160220552A1", "about": "“FORMULATIONS FOR CGRP RECEPTOR ANTAGONISTS” (MERCK SHARP & DOHME CORP., priority 2013, published 2016)", "key": {"[1]": {"settings": "control group; cited from earlier work"}, "[2]": {"settings": "clinical trials; cited from earlier work"}, "[3]": {"test": "BCS classification / solubility of Compound I", "assay_type": "physicochemical"}, "[4]": {"test": "Permeability of Compound I", "assay_type": "in vitro ADME", "settings": "not told"}}, "data": [{"smiles": "NCCCC[C@H](NC(=O)[C@@H](Cc1cc(Br)c(O)c(Br)c1)NC(=O)N1CCC(N2Cc3ccccc3NC2=O)CC1)C(=O)N1CCN(c2ccncc2)CC1", "note": "[BIBN4096BS]", "values": [{"measurement": "prevention of headache induced by CGRP infusion", "setting": "[1]", "result": "able to prevent headache induced by CGRP infusion"}, {"measurement": "effectiveness in treating migraine", "setting": "[2]", "result": "effective in treating acute attacks of migraine"}]}, {"smiles": "C[C@@H]1[C@H](c2ccccc2)C[C@H](NC(=O)c2cnc3c(c2)C[C@@]2(C3)C(=O)Nc3ncccc32)C(=O)N1CC(F)(F)F", "note": "[Compound I, (S)—N-((3S,5S,6R)-6-methyl-2-oxo-5-phenyl-1-(2,2,2-trifluoroethyl)piperidine-3-yl)-2′-oxo-1′,2′,5,7-tetrahydrospiro[cyclopenta[b]pyridine-6,3′-pyrrolo[2,3-b]pyridine]-3-carboxamide trihydrate]", "values": [{"measurement": "BCS Class", "setting": "[3]", "result": "BCS Class 4"}, {"measurement": "solubility", "setting": "[3]", "result": "low solubility"}, {"measurement": "Papp", "setting": "[4]", "result": 16.6, "unit": "×10⁻⁶ cm/s"}]}, {"smiles": "O=C(N[C@@H]1CC[C@@H](c2cccc(F)c2F)CN(CC(F)(F)F)C1=O)N1CCC(n2c(=O)[nH]c3ncccc32)CC1", "note": "[telcagepant]", "values": [{"measurement": "effectiveness in treating migraine", "setting": "[2]", "result": "shown antimigraine effectiveness"}]}]}
